Test results published in patent US8263643B2, “Polyphenol compounds with modulating neurotransmitter release” (Sungkyunkwan University Foundation for Corporate …, priority 2007, dated 2012).
Read-outs that look alike come from different tables or passages of the source. Marks after values point to notes of the source that are not given here.

Assays:
[1] = biological target: T1, SNARE complex (SNAP25, SynH3, Vps) (UniProt P60879+P63045+Q16623); assay: SDS-PAGE analysis of SNARE complex formation; type: biochemical; conditions: for SNARE complex formation (%): control = 100, footnote: [phenolic compound]:SNAP-25 = 1:1, SNARE proteins 10 μM each, polyphenol 100 μM, room temperature 30 min; for Inhibition of SNARE complex formation (in words): FIG. 2, concentration series; for Ratio for inhibition by 50% (IR50), SNARE complex formation: molar concentration ratio phenolic compound:SNAP-25, average of at least three measurements
T1 construct: SynH3 (AF217197); Vps (NM012663); made in house; host or cells: E. coli (Codon (+) RIL, Novagen)
Experimental: A SNARE complex is strong enough so as not to be untwisted by SDS. On the basis of such a property, a SDS-PAGE analysis was performed in order to determine the formation of a SNARE complex. Polyphenol compounds used in the present Example were purchased from Sigma-Aldrich, Wako Chemical, and Extrasynthese.
In order to produce SNARE proteins, SNARE proteins, such as, SNAP25 (NM011428), syntaxin 1A (AF217197), VAMP2 (NM012663), SynH3 (AF217197), and Vps (NM012663), were purified in biologically transformed E. coli (Codon (+) RIL, Novagen).
Then, the materials were quickly mixed by a vortex, and were reacted at room temperature for 30 minutes. […]

[2] = biological target: T2, membrane fusion caused by SNARE (SNAP25, syntaxin 1A, VAMP2) (UniProt P60879+P63045+Q16623); assay: Membrane fusion assay with SNARE-reconstituted liposomes (fluorescence); type: biochemical; conditions: for remaining activity at 20 µM: read-out: Membrane fusion caused by SNARE (% of fusion without inhibitor); for Reduction of membrane fusion (in words): FIG. 3; for Ratio for inhibition by 50% (IR50), membrane fusion: molar concentration ratio phenolic compound:SNAP-25, average of at least three measurements
T2 construct: made in house; host or cells: E. coli (Codon (+) RIL, Novagen)
Experimental: In order to produce SNARE proteins, SNARE proteins, such as SNAP25 (NM011428), syntaxin 1A (AF217197), and VAMP2 (NM012663), were purified in biologically transformed E. coli (Codon (+) RIL, Novagen).
In order to prepare liposome (fine membrane) marked with a fluorescent substance, POPC (62 mol %), DOPS (35 mol %), NBD-PS (1.5 mol %) and a fluorescent substance Rhodamin-PE (1.5 mol %) were mixed to obtain 10 mM of liposome (v-vesicle). Also, in order to prepare a liposome not marked with a fluorescent substance, DOPS and POPC were mixed in a molar concentration ratio of 35:65 to obtain 50 mM of liposome (t-vesicle). In order to prepare a complex of the purified SNAP25 and syntaxin 1a, the SNAP25 and the syntaxin 1a were mixed in a molar concentration ratio of 1:1, and then were reacted at room temperature for 1 hour. Then, the resultant mixture and the liposome not marked with a fluorescent substance were mixed in a molar ratio of 100:1. The VAMP2 and the liposome marked with a fluorescent substance were mixed in a molar ratio of 50:1. Then, each of the two kinds of liposomes was dialyzed by using 10 kDa dialyzing membrane through agitation at 4° C. for 24 hours, and the liposomes were mixed in a ratio of 3:7 (v-vesicle t-visicle). Next, fluorescence was measured by using a fluorometer (SpectraMax M2 manufactured by Molecular Device).
Herein, 100% indicates the degree of membrane fusion in the state where no inhibitor was added. As the value is smaller, the inhibiting degree is higher.

[3] = 20 μM phenolic compound, 100% = no inhibitor added

T1 sequence (P60879 whole entry): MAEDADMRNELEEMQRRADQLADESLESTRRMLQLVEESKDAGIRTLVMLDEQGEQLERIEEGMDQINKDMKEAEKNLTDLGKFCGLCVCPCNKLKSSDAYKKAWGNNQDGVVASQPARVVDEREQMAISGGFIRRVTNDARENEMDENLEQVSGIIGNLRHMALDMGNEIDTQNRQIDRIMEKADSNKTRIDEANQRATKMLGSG
T1 sequence (Q16623 192-254 limits assumed): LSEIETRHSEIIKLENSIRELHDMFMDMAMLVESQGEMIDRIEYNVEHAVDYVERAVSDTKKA
T1 sequence (P63045 2-94 limits assumed): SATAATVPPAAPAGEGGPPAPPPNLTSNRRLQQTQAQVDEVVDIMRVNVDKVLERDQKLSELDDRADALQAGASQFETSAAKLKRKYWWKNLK
T2 sequence (P60879 whole entry, the tested form may be a part): as the sequence (P60879 whole entry) above
T2 sequence (Q16623 whole entry, the tested form may be a part): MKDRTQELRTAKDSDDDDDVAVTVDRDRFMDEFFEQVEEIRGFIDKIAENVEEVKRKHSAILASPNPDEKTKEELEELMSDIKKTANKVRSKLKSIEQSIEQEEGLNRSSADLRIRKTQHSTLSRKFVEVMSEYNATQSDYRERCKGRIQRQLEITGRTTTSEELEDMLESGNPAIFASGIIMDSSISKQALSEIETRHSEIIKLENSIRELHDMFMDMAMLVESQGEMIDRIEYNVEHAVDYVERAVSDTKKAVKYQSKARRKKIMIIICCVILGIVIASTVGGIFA
T2 sequence (P63045 whole entry, the tested form may be a part): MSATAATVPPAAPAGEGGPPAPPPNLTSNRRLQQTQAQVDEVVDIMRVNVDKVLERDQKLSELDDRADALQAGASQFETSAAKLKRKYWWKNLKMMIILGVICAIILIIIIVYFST

Compound | SNARE complex formation (%) [1] [%] | remaining activity at 20 µM [2, 3] [%] | other results
O=C(O)c1ccc(O)c(O)c1 [Protocatechuic acid] | 98.38 ± 4.56 | 104 ± 8.19 | –
Oc1ccc(-c2[o+]c3cc(O)cc(O)c3cc2O)cc1 [Pelargonidin] | 95.61 ± 3.10 | 92.4 ± 3.38 | –
O=c1c(-c2ccc(O)cc2)coc2cc(O)ccc12 [Daidzein] | 104.06 ± 24.43 | 113 ± 13.1 | –
COc1ccc([C@@H]2CC(=O)c3c(O)cc(O)cc3O2)cc1O [Hesperetin] | 114.55 ± 5.00 | 107 ± 2.29 | –
O=c1c(O)c(-c2ccc(O)cc2)oc2cc(O)cc(O)c12 [Kaempferol] | 100.13 ± 7.16 | 108 ± 5 | Inhibition of SNARE complex formation (in words) [1]: inhibit the formation of a SNARE complex by 50% at a low concentration; Ratio for inhibition by 50% (IR50), SNARE complex formation [1]: >60^b; Reduction of membrane fusion (in words) [2]: can reduce membrane fusion; Ratio for inhibition by 50% (IR50), membrane fusion [2]: >20^b
O=C(O)/C=C/c1ccccc1 [Trans-cinnamic acid] | 106.78 ± 30.15 | 108 ± 10.6 | –
COc1cc(-c2[o+]c3cc(O)cc(O)c3cc2O)cc(OC)c1O [Malvidin] | 97.42 ± 6.31 | – | remaining activity at 20 µM [2]: 116 ± 5.97%
O=C(O[C@@H]1Cc2c(O)cc(O)cc2O[C@@H]1c1cc(O)c(O)c(O)c1)c1cc(O)c(O)c(O)c1 [EGCG, Epigallocatechin gallate] | 112.38 ± 10.43 | – | Membrane fusion caused by SNARE (% of fusion without inhibitor) [2, 3]: 57.59 ± 3.39 %
COc1cc2c(c(OC)c1OC)-c1c(cc3c(c1OC)OCO3)C[C@H](C)[C@H](C)C2 [Gomisiin N] | 99.04 ± 5.17 | – | Membrane fusion caused by SNARE (% of fusion without inhibitor) [2, 3]: 92.31 ± 2.37%
O=c1c(O)c(-c2ccc(O)c(O)c2)oc2c(O[C@@H]3O[C@H](CO)[C@@H](O)[C@H](O)[C@H]3O)c(O)cc(O)c12 [Gossypin] | – | – | Membrane fusion caused by SNARE (% of fusion without inhibitor) [2, 3]: 103.19 ± 9.01%
O=c1c(-c2ccc(O)cc2)coc2cc(O)cc(O)c12 [Genistein] | 96.76 ± 8.91 | 119 ± 18.1 | –
COc1ccc([C@@H]2CC(=O)c3c(O)cc(O[C@@H]4O[C@H](CO[C@@H]5O[C@@H](C)[C@H](O)[C@@H](O)[C@H]5O)[C@@H](O)[C@H](O)[C@H]4O)cc3O2)cc1O [Hesperidin] | 112.38 ± 10.43 | – | Membrane fusion caused by SNARE (% of fusion without inhibitor) [2, 3]: 124.11 ± 15.01%

More lines, main results first:

SNARE complex formation (%) [1] [%] | remaining activity at 20 µM [2, 3] [%] | Compound | other results
105.02 ± 11.37 | – | Oc1cc(O)c2c(c1)O[C@H](c1ccc(O)c(O)c1)[C@@H](O)C2 [(+)-Catechin] | Membrane fusion caused by SNARE (% of fusion without inhibitor) [2, 3]: 89.15 ± 1.19%
79.80 ± 10.77 | 33.4 ± 2.24 | O=c1c(O)c(-c2ccc(O)c(O)c2)oc2cc(O)cc(O)c12 [Quercetin] | Inhibition of SNARE complex formation (in words) [1]: inhibit the formation of a SNARE complex by 50% at a low concentration; Ratio for inhibition by 50% (IR50), SNARE complex formation [1]: 24.9; Reduction of membrane fusion (in words) [2]: can reduce membrane fusion; Ratio for inhibition by 50% (IR50), membrane fusion [2]: 2.87
91.21 ± 11.99 | 123 ± 14.3 | O=C(O)/C=C/c1ccc(O)cc1 [p-Coumaric acid] | –
100.78 ± 13.62 | 134 ± 1.49 | O=C(/C=C/c1ccc(O)c(O)c1)O[C@@H]1C[C@](O)(C(=O)O)C[C@@H](O)[C@H]1O [Chlorogenic acid] | –
90.14 ± 10.42 | 32.1 ± 4.14 | O=c1c(O)c(-c2ccc(O)c(O)c2)oc2cc(O)ccc12 [Fisetin] | –
– | 107 ± 6.72 | O=c1c(O)c(-c2ccc(O[C@@H]3O[C@H](CO)[C@@H](O)[C@H](O)[C@H]3O)c(O)c2)oc2cc(O)cc(O)c12 [Spiraeoside] | –
– | 109 ± 3.92 | O=C1c2c(O)cc(O)cc2O[C@H](c2ccc(O)c(O)c2)[C@H]1O [Taxifolin] | –
